The target in one assay is mGluR5 (Rattus norvegicus, UniProt P31424). The experiment in a line: IC50 column under 'Biological Activity' (assay not identified in the shown text; not the binding Ki).
Sequence of mGluR5 (P31424 21-1203): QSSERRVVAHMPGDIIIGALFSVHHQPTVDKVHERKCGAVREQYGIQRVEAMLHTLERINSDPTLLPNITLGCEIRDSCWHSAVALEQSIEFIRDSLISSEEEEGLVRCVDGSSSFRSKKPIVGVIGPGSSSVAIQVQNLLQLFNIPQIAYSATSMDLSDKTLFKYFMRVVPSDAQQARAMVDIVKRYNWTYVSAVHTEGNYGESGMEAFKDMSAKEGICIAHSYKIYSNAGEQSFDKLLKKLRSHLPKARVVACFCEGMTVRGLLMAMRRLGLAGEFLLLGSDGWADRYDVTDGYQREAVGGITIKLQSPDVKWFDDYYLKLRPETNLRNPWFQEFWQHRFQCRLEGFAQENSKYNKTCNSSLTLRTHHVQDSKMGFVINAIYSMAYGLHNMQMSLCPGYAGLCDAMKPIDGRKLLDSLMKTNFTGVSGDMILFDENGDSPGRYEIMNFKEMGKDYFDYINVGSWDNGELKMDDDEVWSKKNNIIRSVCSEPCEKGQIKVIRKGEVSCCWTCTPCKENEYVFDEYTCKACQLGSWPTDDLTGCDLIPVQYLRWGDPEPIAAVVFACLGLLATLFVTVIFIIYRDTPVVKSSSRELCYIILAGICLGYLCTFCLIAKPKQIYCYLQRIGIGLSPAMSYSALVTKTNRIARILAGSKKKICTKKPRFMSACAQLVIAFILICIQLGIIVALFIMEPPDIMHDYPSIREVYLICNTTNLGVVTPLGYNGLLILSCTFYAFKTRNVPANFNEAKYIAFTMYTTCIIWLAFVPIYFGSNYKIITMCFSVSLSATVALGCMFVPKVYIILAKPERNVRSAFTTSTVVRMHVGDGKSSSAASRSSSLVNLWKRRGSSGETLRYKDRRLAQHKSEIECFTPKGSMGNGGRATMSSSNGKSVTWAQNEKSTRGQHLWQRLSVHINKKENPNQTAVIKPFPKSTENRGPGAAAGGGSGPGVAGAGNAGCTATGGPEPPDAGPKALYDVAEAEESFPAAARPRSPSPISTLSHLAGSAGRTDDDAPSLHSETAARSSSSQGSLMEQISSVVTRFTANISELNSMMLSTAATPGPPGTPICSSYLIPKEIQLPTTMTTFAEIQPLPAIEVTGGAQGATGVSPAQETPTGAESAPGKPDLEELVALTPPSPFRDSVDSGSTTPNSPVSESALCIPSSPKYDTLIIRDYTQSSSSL
Settings: not given
A word on the IC50: it is the concentration that gives 50% inhibition. On to `COc1ccc(C(=O)N2CCN(c3ccc(C(F)(F)F)cn3)CC2)cc1C#Cc1ccccn1` [Compound 183, 1-[4-methoxy-3-(pyridin-2-ylethynyl)benzoyl]-4-[5-(trifluoromethyl)pyridin-2-yl]piperazine], for which the IC50 is 66 nM. `COc1ccc(C(=O)N2CCN(c3ncccc3C(F)(F)F)CC2)cc1C#Cc1ccccn1` [Compound 184, 1-[4-methoxy-3-(pyridin-2-ylethynyl)benzoyl]-4-[3-(trifluoromethyl)pyridin-2-yl]piperazine] displayed an IC50 of 117 nM. Molecule `COc1ccc(C(=O)N2CCN(c3ncc(Cl)cc3Cl)CC2)cc1C#Cc1ccccn1` [Compound 185, 1-(3,5-dichloropyridin-2-yl)-4-[4-methoxy-3-(pyridin-2-ylethynyl)benzoyl]piperazine] gave an IC50 of 43 nM. For `COc1ccc(C(=O)N2CCN(c3ncccc3Cl)CC2)cc1C#Cc1ccccn1` [Compound 186, 1-(3-chloropyridin-2-yl)-4-[4-methoxy-3-(pyridin-2-ylethynyl)benzoyl]piperazine], the IC50 is 37 nM. Molecule `COc1ccc(C(=O)N2CCN(c3cccc(C(F)(F)F)c3)CC2)cc1C#Cc1ccccn1` [Compound 187, 1-[4-methoxy-3-(pyridin-2-ylethynyl)benzoyl]-4-[3-(trifluoromethyl)phenyl]piperazine] gave a half-maximal inhibitory concentration (IC50) of 834 nM.

`COc1ccc(C(=O)N2CCN(c3cccc(C)n3)CC2)cc1C#Cc1ccccn1` [Compound 198, 1-[4-methoxy-3-(pyridin-2-ylethynyl)benzoyl]-4-(6-methylpyridin-2-yl)piperazine] came in with an IC50 of 34 nM. Still for that read-out and setting: in the case of `COc1ccc(C(=O)N2CCN(c3ncccn3)CC2)cc1C#Cc1ccccn1` [Compound 353, 2-{4-[4-methoxy-3-(pyridin-2-ylethynyl)benzoyl]piperazin-1-yl}pyrimidine] it was 72 nM.

In the next assay the target is T1, rat mGluR5 receptor (Rattus norvegicus, UniProt P31424).
T1 construct: expressed in transfected cells; host or cells: HEK-293
T1 sequence (P31424 21-1203): as above
The experiment in a line: [3H]-MPEP displacement binding assay, HEK-293 cell membranes expressing rat mGluR5. Conditions: [3H]-MPEP displacement, rat mGluR5; no Ki given; read-out: IC50 (printed in the Median Ki column instead of a Ki). The essentials: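 Membranes from HEK-293 cells expressing rat mGluR5 (12-25 μg protein), incubated 60 min at room temperature with 4 nM [3H]-MPEP in 50 mM Tris pH 7.5, then filtered. Nonspecific binding defined with 10 μM MPEP.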
Regarding `COc1ccc(C(=O)N2CCN(c3ncccn3)CC2)cc1C#Cc1ccc(OCc2ccccc2)cc1` [Compound 358, 2-[4-(3-{[4-(benzyloxy)phenyl]ethynyl}-4-methoxybenzoyl)piperazin-1-yl]pyrimidine], the half-inhibitory concentration (IC50) is above 10000 nM.

The assay is the same for the next values; noted with them: [3H]-MPEP displacement, rat mGluR5; read-out: Median Ki.
Broadly, the Ki is a measure of affinity in units of concentration, obtained from inhibition or displacement. Turning to `COc1ccc(C(=O)N2CCN(c3ccc(C(F)(F)F)cn3)CC2)cc1C#Cc1ccccn1` [Compound 183, 1-[4-methoxy-3-(pyridin-2-ylethynyl)benzoyl]-4-[5-(trifluoromethyl)pyridin-2-yl]piperazine], the Ki is 41 nM. Still for that read-out and setting: in the case of `COc1ccc(C(=O)N2CCN(c3ncccc3C(F)(F)F)CC2)cc1C#Cc1ccccn1` [Compound 184, 1-[4-methoxy-3-(pyridin-2-ylethynyl)benzoyl]-4-[3-(trifluoromethyl)pyridin-2-yl]piperazine] it was 78 nM; in that of `COc1ccc(C(=O)N2CCN(c3ncc(Cl)cc3Cl)CC2)cc1C#Cc1ccccn1` [Compound 185, 1-(3,5-dichloropyridin-2-yl)-4-[4-methoxy-3-(pyridin-2-ylethynyl)benzoyl]piperazine], 47 nM; in that of `COc1ccc(C(=O)N2CCN(c3ncccc3Cl)CC2)cc1C#Cc1ccccn1` [Compound 186, 1-(3-chloropyridin-2-yl)-4-[4-methoxy-3-(pyridin-2-ylethynyl)benzoyl]piperazine], 19 nM. `COc1ccc(C(=O)N2CCN(c3cccc(C(F)(F)F)c3)CC2)cc1C#Cc1ccccn1` [Compound 187, 1-[4-methoxy-3-(pyridin-2-ylethynyl)benzoyl]-4-[3-(trifluoromethyl)phenyl]piperazine]: the Ki turned out to be 5 nM. Still for that read-out and setting: the figure for `COc1ccc(C(=O)N2CCN(c3ncccn3)CC2)cc1C#Cc1cccc([N+](=O)[O-])c1` [Compound 357, 2-(4-{4-methoxy-3-[(3-nitrophenyl)ethynyl]benzoyl}piperazin-1-yl)pyrimidine] is 239 nM; for `COc1ccc(C(=O)N2CCN(c3ncccn3)CC2)cc1C#Cc1ccccc1F` [Compound 359, 2-(4-{3-[(2-fluorophenyl)ethynyl]-4-methoxybenzoyl}piperazin-1-yl)pyrimidine] it is 287 nM.

Consider `COc1ccc(C(=O)N2CCN(c3ncccn3)CC2)cc1C#Cc1ccccc1Cl` [Compound 360, 2-(4-{3-[(2-chlorophenyl)ethynyl]-4-methoxybenzoyl}piperazin-1-yl)pyrimidine], for which the Ki worked out at 4500 nM. Still for that read-out and setting: in the case of `COc1ccc(C(=O)N2CCN(c3ncccn3)CC2)cc1C#Cc1ccc(Cl)cc1` [Compound 363, 2-(4-{3-[(4-chlorophenyl)ethynyl]-4-methoxybenzoyl}piperazin-1-yl)pyrimidine] it was 891 nM. For the molecule `COc1ccc(C(=O)N2CCN(c3ncccn3)CC2)cc1C#Cc1cccc(OC(F)F)c1` [Compound 364, 2-[4-(3-{[3-(difluoromethoxy)phenyl]ethynyl}-4-methoxybenzoyl)piperazin-1-yl] pyrimidine], the Ki was found to be 230 nM.

Staying with this assay, now noted: [3H]-MPEP displacement, rat mGluR5 membranes; read-out: Median Ki.
With `N#Cc1nccnc1N1CCN(C(=O)c2ccc(C(F)(F)F)c(C#Cc3ccccn3)c2)CC1` [Compound 366, 3-(4-{[3-(pyridin-2-ylethynyl)-4-(trifluoromethyl)phenyl]carbonyl}piperazin-1-yl) pyrazine-2-carbonitrile], the Ki came out at 459 nM.

As to `O=C(c1ccc(C(F)(F)F)c(C#Cc2ccccn2)c1)N1CCN(c2ncc(Cl)cc2Cl)CC1` [Compound 368, 1-(3,5-dichloropyridin-2-yl)-4-{[3-(pyridin-2-ylethynyl)-4-(trifluoromethyl)phenyl]carbonyl}piperazine], the inhibition constant Ki is 2920 nM. Still for that read-out and setting: the figure for `O=C(c1ccc(C(F)(F)F)c(C#Cc2ccccn2)c1)N1CCN(c2ncccn2)CC1` [Compound 370, 2-(4-{[3-(pyridin-2-ylethynyl)-4-(trifluoromethyl)phenyl]carbonyl}piperazin-1-yl)pyrimidine] is 164 nM. Still for that read-out and setting: in the case of `O=C(c1ccc(C(F)(F)F)c(C#Cc2ccccn2)c1)N1CCN(c2ncccc2Cl)CC1` [Compound 371, 1-(3-chloropyridin-2-yl)-4-{[3-(pyridin-2-ylethynyl)-4-(trifluoromethyl)phenyl]carbonyl}piperazine] it was 1000 nM; in that of `Cc1ccc(N2CCN(C(=O)c3ccc(C(F)(F)F)c(C#Cc4ccccn4)c3)CC2)nc1` [Compound 372, 1-(5-methylpyridin-2-yl)-4-{[3-(pyridin-2-ylethynyl)-4-(trifluoromethyl)phenyl]carbonyl}piperazine], 292 nM; in that of `O=C(c1ccc(C(F)(F)F)c(C#Cc2ccccn2)c1)N1CCN(Cc2cccc(F)c2)CC1` [Compound 376, 1-(3-fluorobenzyl)-4-{[3-(pyridin-2-ylethynyl)-4-(trifluoromethyl)phenyl]carbonyl}piperazine], 811 nM. Still for that read-out and setting: the figure for `O=C(c1ccc(C(F)(F)F)c(C#Cc2ccccn2)c1)N1CCN(c2ccc(C(F)(F)F)cn2)CC1` [Compound 379, 1-{[3-(pyridin-2-ylethynyl)-4-(trifluoromethyl)phenyl]carbonyl}-4-[5-(trifluoromethyl)pyridin-2-yl]piperazine] is 3130 nM; for `Cc1cccc(N2CCN(C(=O)c3ccc(C(F)(F)F)c(C#Cc4ccccn4)c3)CC2)n1` [Compound 380, 1-(6-methylpyridin-2-yl)-4-{[3-(pyridin-2-ylethynyl)-4-(trifluoromethyl)phenyl]carbonyl}piperazine] it is 352 nM; for `O=C(c1ccc(C(F)(F)F)c(C#Cc2ccccn2)c1)N1CCN(c2cnccn2)CC1` [Compound 381, 2-(4-{[3-(pyridin-2-ylethynyl)-4-(trifluoromethyl)phenyl]carbonyl}piperazin-1-yl)pyrazine] it is 162 nM. With `O=C(c1ccc(Cl)c(C#Cc2ccccn2)c1)N1CCN(c2cccc(C(F)(F)F)c2)CC1` [Compound 392, 1-[4-chloro-3-(pyridin-2-ylethynyl)benzoyl]-4-[3-(trifluoromethyl)phenyl]piperazine], the inhibition constant Ki was determined as 120 nM.

Still in this assay, the particulars now being: bound printed in place of a Ki; read-out: IC50 (printed in the Median Ki column).
As for `COc1nc(N2CCN(C(=O)c3ccc(C(F)(F)F)c(C#Cc4ccccn4)c3)CC2)ncc1Br` [Compound 365, 5-bromo-4-methoxy-2-(4-{[3-(pyridin-2-ylethynyl)-4-(trifluoromethyl)phenyl]carbonyl}piperazin-1-yl)pyrimidine], the IC50 was above 10000 nM.

Regarding `O=C(c1ccc(C(F)(F)F)c(C#Cc2ccccn2)c1)N1CCN(c2nc3ccccc3s2)CC1` [Compound 377, 2-(4-{[3-(pyridin-2-ylethynyl)-4-(trifluoromethyl)phenyl]carbonyl}piperazin-1-yl)-1,3-benzothiazole], the 50% inhibitory concentration (IC50) was above 10000 nM.

(Values after US20090325964A1, “Piperazine Metabotropic Glutamate Receptor 5 (MGLUR5) Negative Allosteric Modulators For Anxiety/Depression” (Wyeth, priority 2008, published 2009).)
